We go through two molecules from patent US20250221977A1, “NOVEL BENZOTHIOPHENE DERIVATIVE AND USE THEREOF AS BET INHIBITOR” (BENOBIO CO., LTD., priority 2022, published 2025).

For the assay, the system named is HPAF, a human pancreatic cancer cell line. Description: In vitro anticancer efficacy test on human pancreatic cancer cell line (CCK cell viability assay). Format: cell-based. Conditions: for IC50: HPAF cells, 96 hours, CCK assay. The protocol:
HPAF, a human pancreatic cancer cell line, was dispensed in a 96-well plate and incubated in a 37° C., 5% CO2 incubator for 24 hours. Thereafter, 10 μl of Examples and Comparative Examples were treated to each well at different concentrations (1 nM, 0.01 μM, 0.1 μM, 1 μM, 10 μM, 100 μM) and incubated for 96 hours. Each well was treated with a reagent using a CCK assay kit (Dong-In LS, D Plus CCK cell viability assay kit), and reacted in a 37° C., 5% CO2 incubator for 30 minutes to 1 hour, and then the absorbance was measured at a wavelength of 450 nm using a microplate reader (SpectraMax i3x, USA). The IC50 value was confirmed using the GraphPad Prism 5 (GraphPad Software, Inc., San Diego, USA) program from the results obtained at this time.

By IC50 is commonly meant the concentration at which inhibition is half-maximal. Higher therefore signals weaker potency in that assay. In turn, `CNC(=O)CCN(Cc1ccc(C(F)F)cc1)C(=O)c1cc2c(OC)ccc(-c3ccc(=O)n(C)c3)c2s1` [BBC1115, N-[[4-(difluoromethyl)phenyl]methyl]-4-methoxy-N-[3-(methylamino)-3-oxo-propyl]-7-(1-methyl-6-oxo-3-pyridyl)benzothiophene-2-carboxamide] yielded an IC50 (Homo sapiens, Pancreatic cancer cell) of 130 nM. Moreover, where the note is “versus JQ1”, the “IC50 value for HPAF, times lower than Comparative Example 1” value is “about 17.69 times”. The molecule `Cc1sc2c(c1C)C(c1ccc(Cl)cc1)=N[C@@H](CC(=O)OC(C)(C)C)c1nnc(C)n1-2` [JQ1, reference compound] had an IC50 of 2300 nM.
